Values quoted from earlier work as cited in patent EP0209897A2, “Peptide enzyme inhibitors” (Merck & Co., Inc., priority 1985, dated 1987).

Test system: hog renin
Conditions: after the injection of hog renin into nephrectomized rats; Gross et al., Science 175:656, 1971

Pepstatin
blood pressure in vivo: reduce blood pressure
